Test results taken from patent publication US20230220021A1, “CYCLIC PEPTIDE INHIBITORS OF PSD-95 AND USES THEREOF” (University of Copenhagen, priority 2020, published 2023).
Where a SMILES comes first, the peptide text is derived from it. [ ]: non-standard residue; d: D form.

molecular target: T1, PSD-95-PDZ2 (Homo sapiens, UniProt P78352); assay: Fluorescence polarization (FP) competition assay against cyclic nNOS TAMRA probe; format: binding; conditions: FP competition, cyclic nNOS TAMRA probe; mean of triplicates; N.B. = not binding; read-out: Ki
T1 construct: 7xHis (N); made in house; host or cells: Escherichia coli B21 pLys (for the mutants, 'as previously described')
T1 sequence (P78352 160-246 limits assumed): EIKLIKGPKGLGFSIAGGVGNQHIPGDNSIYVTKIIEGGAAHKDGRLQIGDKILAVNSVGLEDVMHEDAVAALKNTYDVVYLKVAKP

Row | Ki [µM] | SMILES
1 | 4.8 | CC[C@H](C)[C@@H]1NC(=O)[C@H]([C@@H](C)O)NC(=O)[C@H](CCCCN)NC(=O)[C@@H]2CCCN2C(=O)[C@H]([C@@H](C)O)NC(=O)CNC(=O)[C@H](CC(=O)O)NC(=O)CNC(=O)[C@H]([C@@H](C)O)NC(=O)[C@H](Cc2ccccc2)NC(=O)[C@H]([C@@H](C)O)NC(=O)[C@H]([C@@H](C)O)NC(=O)[C@H](CCC(=O)O)NC(=O)[C@H](CC(C)C)NC(=O)[C@H](Cc2c[nH]cn2)NC(=O)[C@H]([C@@H](C)O)N(C)C(=O)[C@H](CCC(N)=O)NC(=O)CNC(=O)[C@H]2CCCN2C(=O)[C@H](CCC(N)=O)NC(=O)[C@H]([C@@H](C)O)NC(=O)[C@H](C(C)C)NC(=O)[C@H](CCCNC(=N)N)NC1=O [compound 84]
2 | 6.19 | CC[C@H](C)[C@@H]1NC(=O)[C@H]([C@@H](C)O)NC(=O)[C@H](CCCCN)NC(=O)[C@@H]2CCCN2C(=O)[C@H]([C@@H](C)O)NC(=O)CNC(=O)[C@H](CC(=O)O)NC(=O)CN(C)C(=O)[C@H]([C@@H](C)O)NC(=O)[C@H](Cc2ccccc2)NC(=O)[C@H]([C@@H](C)O)NC(=O)[C@H]([C@@H](C)O)NC(=O)[C@H](CCC(=O)O)NC(=O)[C@H](CC(C)C)NC(=O)[C@H](Cc2c[nH]cn2)NC(=O)[C@H]([C@@H](C)O)NC(=O)[C@H](CCC(N)=O)NC(=O)CNC(=O)[C@H]2CCCN2C(=O)[C@H](CCC(N)=O)NC(=O)[C@H]([C@@H](C)O)NC(=O)[C@H](C(C)C)NC(=O)[C@H](CCCNC(=N)N)NC1=O [compound 92]

Continued, compound first:

Row | SMILES | Ki [µM]
3 | CC[C@H](C)[C@@H]1NC(=O)[C@H]([C@@H](C)O)NC(=O)[C@H](CCCCN)NC(=O)[C@@H]2CCCN2C(=O)[C@H]([C@@H](C)O)NC(=O)CNC(=O)[C@H](CC(=O)O)NC(=O)CNC(=O)[C@H]([C@@H](C)O)NC(=O)[C@H](Cc2ccccc2)NC(=O)[C@H](CCC(=O)O)NC(=O)[C@H]([C@@H](C)O)NC(=O)[C@H](CCC(=O)O)NC(=O)[C@H](CC(C)C)NC(=O)[C@H](Cc2c[nH]cn2)NC(=O)[C@H]([C@@H](C)O)NC(=O)[C@H](CCC(N)=O)NC(=O)CNC(=O)[C@H]2CCCN2C(=O)[C@H](CCC(N)=O)NC(=O)[C@H]([C@@H](C)O)NC(=O)[C@H](C(C)C)NC(=O)[C@H](CCCNC(=N)N)NC1=O [compound 53] (cyclo(THLETEFTGDGTPKTIRVTQ[dP]GQ)) | 11.5
4 | CC[C@H](C)[C@@H]1NC(=O)[C@H]([C@@H](C)O)NC(=O)[C@H](CCCCN)NC(=O)[C@@H]2CCCN2C(=O)CNC(=O)[C@H](CC(=O)O)NC(=O)CNC(=O)[C@H]([C@@H](C)O)NC(=O)[C@H](Cc2ccccc2)NC(=O)[C@H]([C@@H](C)O)NC(=O)[C@H]([C@@H](C)O)NC(=O)[C@H](CCC(=O)O)NC(=O)[C@H](CC(C)C)NC(=O)[C@H](Cc2c[nH]cn2)NC(=O)[C@H]([C@@H](C)O)NC(=O)[C@H](CCC(N)=O)NC(=O)CNC(=O)[C@H]2CCCN2C(=O)[C@H](CCC(N)=O)NC(=O)[C@H]([C@@H](C)O)NC(=O)[C@H](C(C)C)NC(=O)[C@H](CCCNC(=N)N)NC1=O [compound 77] (cyclo(THLETTFTGDGPKTIRVTQ[dP]GQ)) | 1.43
5 | CC[C@H](C)[C@@H]1NC(=O)[C@H]([C@@H](C)O)NC(=O)[C@H](CCCCN)NC(=O)[C@@H]2CCCN2C(=O)[C@H]([C@@H](C)O)NC(=O)CNC(=O)[C@H](CC(=O)O)NC(=O)CNC(=O)[C@H]([C@@H](C)O)NC(=O)[C@H](Cc2ccccc2)NC(=O)[C@H]([C@@H](C)O)N(C)C(=O)[C@H]([C@@H](C)O)NC(=O)[C@H](CCC(=O)O)NC(=O)[C@H](CC(C)C)NC(=O)[C@H](Cc2c[nH]cn2)NC(=O)[C@H]([C@@H](C)O)NC(=O)[C@H](CCC(N)=O)NC(=O)CNC(=O)[C@H]2CCCN2C(=O)[C@H](CCC(N)=O)NC(=O)[C@H]([C@@H](C)O)NC(=O)[C@H](C(C)C)NC(=O)[C@H](CCCNC(=N)N)NC1=O [compound 89] | 1.47
6 | CC[C@H](C)[C@@H]1NC(=O)[C@H]([C@@H](C)O)NC(=O)[C@H](CCCCN)N(C)C(=O)[C@@H]2CCCN2C(=O)[C@H]([C@@H](C)O)NC(=O)CNC(=O)[C@H](CC(=O)O)NC(=O)CNC(=O)[C@H]([C@@H](C)O)NC(=O)[C@H](Cc2ccccc2)NC(=O)[C@H]([C@@H](C)O)NC(=O)[C@H]([C@@H](C)O)NC(=O)[C@H](CCC(=O)O)NC(=O)[C@H](CC(C)C)NC(=O)[C@H](Cc2c[nH]cn2)NC(=O)[C@H]([C@@H](C)O)NC(=O)[C@H](CCC(N)=O)NC(=O)CNC(=O)[C@H]2CCCN2C(=O)[C@H](CCC(N)=O)NC(=O)[C@H]([C@@H](C)O)NC(=O)[C@H](C(C)C)NC(=O)[C@H](CCCNC(=N)N)NC1=O [compound 96] | 0.48

same assay, conditions: FP inhibition constant normalized to WT value

Row | Relative Ki (Ki mut/Ki WT) | SMILES
7 | 1.25 | CC[C@H](C)[C@@H]1NC(=O)[C@H]([C@@H](C)O)NC(=O)[C@H](CCCCN)NC(=O)[C@@H]2CCCN2C(=O)[C@H]([C@@H](C)O)NC(=O)CNC(=O)[C@H](CC(=O)O)NC(=O)CNC(=O)[C@H]([C@@H](C)O)NC(=O)[C@H](Cc2ccccc2)NC(=O)[C@H]([C@@H](C)O)NC(=O)[C@H]([C@@H](C)O)NC(=O)[C@H](CCC(=O)O)NC(=O)[C@H](CC(C)C)NC(=O)[C@H](Cc2c[nH]cn2)NC(=O)[C@H]([C@@H](C)O)NC(=O)[C@H](CCC(N)=O)NC(=O)CNC(=O)[C@H]2CCCN2C(=O)[C@H](CCC(N)=O)NC(=O)[C@H](Cc2ccc(O)cc2)NC(=O)[C@H](C(C)C)NC(=O)[C@H](CCCNC(=N)N)NC1=O [compound 49] (cyclo(THLETTFTGDGTPKTIRVYQ[dP]GQ))
8 | 4.79 | CC[C@H](C)[C@@H]1NC(=O)[C@H](CO)NC(=O)[C@H](CCCCN)NC(=O)[C@@H]2CCCN2C(=O)[C@H]([C@@H](C)O)NC(=O)CNC(=O)[C@H](CC(=O)O)NC(=O)CNC(=O)[C@H]([C@@H](C)O)NC(=O)[C@H](Cc2ccccc2)NC(=O)[C@H]([C@@H](C)O)NC(=O)[C@H]([C@@H](C)O)NC(=O)[C@H](CCC(=O)O)NC(=O)[C@H](CC(C)C)NC(=O)[C@H](Cc2c[nH]cn2)NC(=O)[C@H]([C@@H](C)O)NC(=O)[C@H](CCC(N)=O)NC(=O)CNC(=O)[C@H]2CCCN2C(=O)[C@H](CCC(N)=O)NC(=O)[C@H]([C@@H](C)O)NC(=O)[C@H](C(C)C)NC(=O)[C@H](CCCNC(=N)N)NC1=O [compound 50] (cyclo(THLETTFTGDGTPKSIRVTQ[dP]GQ))
9 | 2.36 | CC[C@H](C)[C@@H]1NC(=O)[C@H]([C@@H](C)O)NC(=O)[C@H](CCCCN)NC(=O)[C@@H]2CCCN2C(=O)[C@H]([C@@H](C)O)NC(=O)CNC(=O)[C@H](CC(=O)O)NC(=O)CNC(=O)[C@H]([C@@H](C)O)NC(=O)[C@H](Cc2ccccc2)NC(=O)[C@H]([C@@H](C)O)NC(=O)[C@H]([C@@H](C)O)NC(=O)[C@H](CCC(=O)O)NC(=O)[C@H](C)NC(=O)[C@H](Cc2c[nH]cn2)NC(=O)[C@H]([C@@H](C)O)NC(=O)[C@H](CCC(N)=O)NC(=O)CNC(=O)[C@H]2CCCN2C(=O)[C@H](CCC(N)=O)NC(=O)[C@H]([C@@H](C)O)NC(=O)[C@H](C(C)C)NC(=O)[C@H](CCCNC(=N)N)NC1=O [compound 57] (cyclo(THAETTFTGDGTPKTIRVTQ[dP]GQ))

Second part, the compound before the results:

Row | SMILES | Relative Ki (Ki mut/Ki WT)
10 | CC[C@H](C)[C@@H]1NC(=O)[C@H]([C@@H](C)O)NC(=O)[C@H](CCCCN)NC(=O)[C@@H]2CCCN2C(=O)[C@H]([C@@H](C)O)NC(=O)CNC(=O)[C@H](CC(=O)O)NC(=O)CNC(=O)[C@H]([C@@H](C)O)NC(=O)[C@H](Cc2ccccc2)NC(=O)[C@H]([C@@H](C)O)NC(=O)[C@H]([C@@H](C)O)NC(=O)[C@H](CCC(=O)O)NC(=O)[C@H](CC(C)C)NC(=O)[C@H](Cc2c[nH]cn2)NC(=O)[C@H]([C@@H](C)O)NC(=O)[C@H](CCC(N)=O)NC(=O)CNC(=O)[C@H]2CCCN2C(=O)[C@H](CCC(N)=O)NC(=O)[C@H]([C@@H](C)O)NC(=O)[C@H](Cc2ccccc2)NC(=O)[C@H](CCCNC(=N)N)NC1=O [compound 46] (cyclo(THLETTFTGDGTPKTIRFTQ[dP]GQ)) | 0.89
11 | CC[C@H](C)[C@@H]1NC(=O)[C@H]([C@@H](C)O)NC(=O)[C@H](CCCCN)NC(=O)[C@@H]2CCCN2C(=O)[C@H]([C@@H](C)O)NC(=O)CNC(=O)[C@H](CC(=O)O)NC(=O)CNC(=O)[C@H]([C@@H](C)O)NC(=O)[C@H](Cc2ccccc2)NC(=O)[C@H]([C@@H](C)O)NC(=O)[C@H]([C@@H](C)O)NC(=O)[C@H](CCC(=O)O)NC(=O)[C@H](CC(C)C)NC(=O)[C@H](Cc2c[nH]cn2)NC(=O)[C@H]([C@@H](C)O)NC(=O)[C@H](CCC(N)=O)NC(=O)CNC(=O)[C@H]2CCCN2C(=O)[C@H](CCC(N)=O)NC(=O)[C@H]([C@@H](C)O)NC(=O)[C@H](Cc2ccc(O)cc2)NC(=O)[C@H](CCCNC(=N)N)NC1=O [compound 47] (cyclo(THLETTFTGDGTPKTIRYTQ[dP]GQ)) | 0.85
12 | CC[C@H](C)[C@@H]1NC(=O)[C@H]([C@@H](C)O)NC(=O)[C@H](CCCCN)NC(=O)[C@@H]2CCCN2C(=O)[C@H]([C@@H](C)O)NC(=O)CNC(=O)[C@H](CC(=O)O)NC(=O)CNC(=O)[C@H]([C@@H](C)O)NC(=O)[C@H](Cc2ccccc2)NC(=O)[C@H]([C@@H](C)O)NC(=O)[C@H]([C@@H](C)O)NC(=O)[C@H](CCC(=O)O)NC(=O)[C@H](CC(C)C)NC(=O)[C@H](Cc2c[nH]cn2)NC(=O)[C@H]([C@@H](C)O)NC(=O)[C@H](CCC(N)=O)NC(=O)CNC(=O)[C@H]2CCCN2C(=O)[C@H](CCC(N)=O)NC(=O)[C@H](Cc2ccccc2)NC(=O)[C@H](C(C)C)NC(=O)[C@H](CCCNC(=N)N)NC1=O [compound 48] (cyclo(THLETTFTGDGTPKTIRVFQ[dP]GQ)) | 1.05
13 | CC[C@H](C)[C@@H]1NC(=O)[C@H]([C@@H](C)O)NC(=O)[C@H](CCCCN)NC(=O)[C@@H]2CCCN2C(=O)[C@H]([C@@H](C)O)NC(=O)CNC(=O)[C@H](CC(=O)O)NC(=O)CNC(=O)[C@H]([C@@H](C)O)NC(=O)[C@H](Cc2ccccc2)NC(=O)[C@H]([C@@H](C)O)NC(=O)[C@H](CO)NC(=O)[C@H](CCC(=O)O)NC(=O)[C@H](CC(C)C)NC(=O)[C@H](Cc2c[nH]cn2)NC(=O)[C@H]([C@@H](C)O)NC(=O)[C@H](CCC(N)=O)NC(=O)CNC(=O)[C@H]2CCCN2C(=O)[C@H](CCC(N)=O)NC(=O)[C@H]([C@@H](C)O)NC(=O)[C@H](C(C)C)NC(=O)[C@H](CCCNC(=N)N)NC1=O [compound 52] (cyclo(THLESTFTGDGTPKTIRVTQ[dP]GQ)) | 2.51
14 | CC[C@H](C)[C@@H]1NC(=O)[C@H]([C@@H](C)O)NC(=O)[C@H](CCCCN)NC(=O)[C@@H]2CCCN2C(=O)[C@H]([C@@H](C)O)NC(=O)CNC(=O)[C@H](CC(=O)O)NC(=O)CNC(=O)[C@H]([C@@H](C)O)NC(=O)[C@H](Cc2ccccc2)NC(=O)[C@H](CCC(=O)O)NC(=O)[C@H]([C@@H](C)O)NC(=O)[C@H](CCC(=O)O)NC(=O)[C@H](CC(C)C)NC(=O)[C@H](Cc2c[nH]cn2)NC(=O)[C@H]([C@@H](C)O)NC(=O)[C@H](CCC(N)=O)NC(=O)CNC(=O)[C@H]2CCCN2C(=O)[C@H](CCC(N)=O)NC(=O)[C@H]([C@@H](C)O)NC(=O)[C@H](C(C)C)NC(=O)[C@H](CCCNC(=N)N)NC1=O [compound 53] (cyclo(THLETEFTGDGTPKTIRVTQ[dP]GQ)) | 0.34
